From patent publication US20230000813A1, “COMPOUND FOR THE TREATMENT OF BOVINE OR SWINE RESPIRATORY DISEASE” (Intervet Inc., priority 2016, published 2023)
In brackets after ≈: the same amount, converted by molar mass. Several values for one entry are separate records, joined by “and”; a condition that tells them apart may be missing. Equal values may be shown once. Marks after values point to notes of the source that are not given here.

Columns and labels:
[1] = Plasma and tissue concentrations in infected calves (Example 10); assay type: in vivo, cattle calves; conditions: SC single 10 mg/kg (C 231 in 10% Poloxamer 188; C 329 in 35% Cavitron), individual animals and mean
[2] = system: 20 isolates of Bordetella (B.) bronchiseptica; assay: MIC50/MIC90, broth-microdilution, European respiratory tract isolates; assay type: cell-based
Description: (§1) The in vitro activity of compounds against 20 isolates of Actinobacillus (A.) pleuropneumoniae, 20 of Bordetella (B.) bronchiseptica, 20 of Histophilus (H.) somni, 40 of Mannheimia (M.) haemolytica and 40 of Pasteurella (P.) multocida collected in different European countries were determined. All bacteria were isolated from the respiratory tract of swine and cattle suffering from respiratory disease. All isolates were epidemiologically unrelated as specified by the different suppliers.
(§2) The minimum inhibitory concentrations (MIC) of compounds according to the invention were determined by the broth-microdilution method according to CLSI document VET01-A4.
(§3) Microdilution trays containing a doubling dilution series of the test compounds were used for the tests.
(§4) The MIC results were interpreted according to the CLSI documents VET01-S3. The lowest concentration of compound at which no visible growth (i.e. no turbidity) detected by the unaided eye was recorded as the MIC.

[3] = system: 20 isolates of Histophilus (H.) somni; assay: as above; assay type: cell-based
Description: as §1, §2, §3, §4

[4] = system: 20 isolates of Actinobacillus (A.) pleuropneumoniae; assay: as above; assay type: cell-based
Description: as §1, §2, §3, §4

[5] = system: 40 isolates of Mannheimia (M.) haemolytica; assay: as above; assay type: cell-based
Description: as §1, §2, §3, §4

[6] = system: 40 isolates of Pasteurella (P.) multocida; assay: as above; assay type: cell-based
Description: as §1, §2, §3, §4

M. haemolytica = assay: Mannheimia haemolytica cattle lung infection model, efficacy (Example 10); assay type: in vivo, cattle calves; conditions: for Food consumption, cumulated for all animals in the group: 3 calves, 10 mg/kg
Description: Unless otherwise described the study was conducted as described in Clinical Example 8
Calves were infected via intratracheal instillation of appr. 300 mL of M. haemolytica PBS suspension containing approximately 4×10^9 CFU M. haemolytica in late log phase on Day 0.
One hour later three animals each were treated with 10 mg/kg of Compound 231(referred to as C. 231) (80 mg/mL in 10% Poloxamer 188), or 10 mg/kg or 5 mg/kg Compound 329 (referred to as C. 329) (150 mg/mL in 35% Cavitron).
The following clinical findings were recorded: The general behavior scores of the animals before (DO am) and after infection with M. haemolytica in the different treated and control groups are indicated in FIG. 8-1: 0=normal; 1=slightly depressive, 2=moderately depressive, 3=highly depressive, 4=recumbency.
The following pathomorphological findings after section on Day 2 were recorded: After measuring the body weight and the lung weight the Lung body mass ratio was calculated as shown in FIG. 8-2. A healthy animal has a lung body mass ration around 1.7 or lower. The area percentage of lung consolidations compared to the total lung tissue and the lung score determined that is a combined score of such percentage of lung consoldiations and the grade. For the “grade” the degree of lung consolidation score was graded from 0 to 3 for each of eight lung lobes: 0 no visible changes, 1 low graded colour changes or induration, 2 medium graded induration, 3 high graded induration, hepatisation, necrosis.
The geometrical means (CFU/g tissue) of bacteriological re-isolations of Mannheimia haemolytica from lung tissue are illustrated in FIG. 8-4.

[7] = system: Mannheimia haemolytica MH 6357 (M7/2, reference strain, cattle infection strain); assay: MIC, broth-microdilution (CLSI VET01-A4); assay type: cell-based; conditions: strain MH 6357
In short: (§5)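 Compounds were tested in microdilution trays as twofold serial dilutions. The MIC was taken as the lowest concentration with no turbidity visible to the unaided eye, and results were interpreted per CLSI VET01-S3.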

[8] = system: Mannheimia haemolytica MH 6374 (ATCC 33396, reference strain); assay: MIC, broth-microdilution (CLSI VET01-A4); assay type: cell-based; conditions: strain MH 6374
In short: as §5

[9] = system: Mannheimia haemolytica MH 10720 (154, BRD field isolate); assay: MIC, broth-microdilution (CLSI VET01-A4); assay type: cell-based; conditions: strain MH 10720
In short: as §5

[10] = system: Pasteurella multocida PM 10775 (080130003051, BRD field isolate); assay: MIC, broth-microdilution (CLSI VET01-A4); assay type: cell-based; conditions: strain PM 10775
In short: as §5

[11] = system: Pasteurella multocida PM 6391 (ATCC 43137, reference strain); assay: MIC, broth-microdilution (CLSI VET01-A4); assay type: cell-based; conditions: strain PM 6391
In short: as §5

[12] = system: Pasteurella multocida PM 6267 (P 2225 (L386), reference strain, mouse infection strain); assay: MIC, broth-microdilution (CLSI VET01-A4); assay type: cell-based; conditions: strain PM 6267
In short: as §5

[13] = system: Mannheimia haemolytica MH 12587 (1071, BRD field isolate, macrolide-resistance: erm+, E+); assay: MIC, broth-microdilution (CLSI VET01-A4); assay type: cell-based; conditions: strain MH 12587, macrolide-resistant
In short: as §5

[14] = system: Pasteurella multocida PM 12080 (IV102277-0093, BRD field isolate); assay: MIC, broth-microdilution (CLSI VET01-A4); assay type: cell-based; conditions: strain PM 12080
In short: as §5

[15] = system: Acinetobacter baumanii AB 16496 (ATCC 19606, reference strain); assay: MIC, broth-microdilution (CLSI VET01-A4); assay type: cell-based; conditions: strain AB 16496
Description: (§6) The Minimum inhibitory concentrations (MIC) of compounds according to the invention were determined by the broth-microdilution method according to CLSI document VET01-A4.
(§7) Microdilution trays containing a doubling dilution series of the test compound were used for the tests.
as §4

[16] = system: Acinetobacter baumanii AB 15919 (IV369-2012, dermatitis field isolate); assay: MIC, broth-microdilution (CLSI VET01-A4); assay type: cell-based; conditions: strain AB 15919
Description: as §6, §7, §4

[17] = system: Staphylococcus aureus SA 5816 (2139, mastitis field isolate); assay: MIC, broth-microdilution (CLSI VET01-A4); assay type: cell-based; conditions: strain SA 5816
Description: as §6, §7, §4

[18] = system: Pasteurella multocida PM 14426 (0006-439, BRD field isolate, macrolide-resistant); assay: MIC, broth-microdilution (CLSI VET01-A4); assay type: cell-based; conditions: strain PM 14426, macrolide-resistant
Description: as §6, §7, §4

[19] = system: Staphylococcus aureus SA 6114 (ATCC 29213, reference strain); assay: MIC, broth-microdilution (CLSI VET01-A4); assay type: cell-based; conditions: strain SA 6114
Description: as §6, §7, §4

[20] = system: Mannheimia haemolytica MH 12180 (KLI-02944, BRD field isolate); assay: MIC, broth-microdilution (CLSI VET01-A4); assay type: cell-based; conditions: strain MH 12180
Description: as §6, §7, §4

[21] = calves infected with M. haemolytica, SC, single, 10 mg/kg BW

SMILES: COCCNCc1ccc(C#Cc2ccc(C(=O)N[C@H](C(=O)NO)[C@@H](C)O)cc2)cc1 [C. 231]
- Concentration, Tissue (48 h) ELF [1]: BLQ
- Concentration, Tissue (48 h) Muscle [1]: 27 ng/mL
- Concentration, Plasma 0.5 h ([1]; 10 mg/kg): 1150 ng/mL (2×) and 1320 ng/mL
- Concentration, Plasma 2 h ([1]; 10 mg/kg): 448 ng/mL and 468 ng/mL and 447 ng/mL
- Concentration, Plasma 4 h ([1]; 10 mg/kg): 179 ng/mL and 171 ng/mL and 180 ng/mL
- Concentration, Plasma 6 h ([1]; 10 mg/kg): 83.9 ng/mL and 82.8 ng/mL and 102 ng/mL
- Concentration, Plasma 24 h ([1]; 10 mg/kg): 6.21 ng/mL and 10.8 ng/mL and 7.47 ng/mL
- Concentration, Plasma 48 h ([1]; 10 mg/kg): BLQ and 7.16 ng/mL and 5.74 ng/mL
- Concentration, Tissue (48 h) Kidney ([1]; 10 mg/kg): 56 ng/mL and 53.8 ng/mL and 79.3 ng/mL
- Concentration, Tissue (48 h) Liver ([1]; 10 mg/kg): 48.7 ng/mL and 41.2 ng/mL and 66.9 ng/mL
- Concentration, Tissue (48 h) Lung ([1]; 10 mg/kg): 26.6 ng/mL and BLQ and 22.4 ng/mL
- Concentration, Tissue (48 h) Muscle ([1]; 10 mg/kg): BLQ
- Concentration, Plasma 0 h ([1]; predose): BLQ
- MIC50 [2]: >16 µg/mL
- MIC90 [2]: >16 µg/mL
- MIC50 [3]: 0.125 µg/mL (≈ 0.294 µM)
- MIC90 [3]: 0.25 µg/mL (≈ 0.588 µM)
- MIC50 [4]: 0.25 µg/mL (≈ 0.588 µM)
- MIC90 [4]: 0.5 µg/mL (≈ 1.18 µM)
- MIC50 [5]: 0.5 µg/mL (≈ 1.18 µM)
- MIC90 [5]: 1 µg/mL (≈ 2.35 µM)
- MIC50 [6]: ≤0.016 µg/mL
- MIC90 [6]: 0.063 µg/mL (≈ 0.148 µM)
- Food consumption, cumulated for all animals in the group (M. haemolytica; D 0 am, after infection and treatment): 1800** g
- Food consumption, cumulated for all animals in the group (M. haemolytica; D 0 pm): 4800 g
- Food consumption, cumulated for all animals in the group (M. haemolytica; D +1 am): 4800 g
- Food consumption, cumulated for all animals in the group (M. haemolytica; D +1 pm): 4800 g
- Food consumption, cumulated for all animals in the group (M. haemolytica; D −1 (before infection)): 4800 g
- Bacteriological Cure (x of n) (M. haemolytica; [21]): 2/3
- Survival (x of n) (M. haemolytica; [21]): 3/3
- efficacy against an artificial lung infection with M. haemolytica in the calf (M. haemolytica; tested dosages 10 mg/kg for C 231 and 10 mg/kg and 5 mg/kg for C 329, conclusion in words): effective
- MIC [7]: 0.5 µg/mL (≈ 1.18 µM)
- MIC [8]: 0.25 µg/mL (≈ 0.588 µM)
- MIC [9]: 0.5 µg/mL (≈ 1.18 µM)
- MIC [10]: ≤0.016 µg/mL
- MIC [11]: 0.063 µg/mL (≈ 0.148 µM)
- MIC [12]: ≤0.016 µg/mL
- MIC [13]: 0.5 µg/mL (≈ 1.18 µM)
- MIC [14]: 0.063 µg/mL (≈ 0.148 µM)
- MIC [15]: >16 µg/mL
- MIC [16]: >16 µg/mL
- MIC [17]: >16 µg/mL
- MIC [18]: 0.032 µg/mL (≈ 0.0752 µM)
- MIC [19]: >16 µg/mL
- MIC [20]: 0.5 µg/mL (≈ 1.18 µM)

SMILES: CCCNCc1ccc(C#Cc2ccc(C(=O)N[C@H](C(=O)NO)[C@@H](C)O)cc2)cc1 [C. 251]
- MIC50 [2]: >16 µg/mL
- MIC90 [2]: >16 µg/mL
- MIC50 [3]: 0.125 µg/mL (≈ 0.305 µM)
- MIC90 [3]: 0.25 µg/mL (≈ 0.611 µM)
- MIC50 [4]: 0.25 µg/mL (≈ 0.611 µM)
- MIC90 [4]: 0.5 µg/mL (≈ 1.22 µM)
- MIC50 [5]: 1 µg/mL (≈ 2.44 µM)
- MIC90 [5]: 1 µg/mL (≈ 2.44 µM)
- MIC50 [6]: 0.063 µg/mL (≈ 0.154 µM)
- MIC90 [6]: 0.125 µg/mL (≈ 0.305 µM)
- MIC [7]: 2 µg/mL (≈ 4.88 µM)
- MIC [8]: 8 µg/mL (≈ 19.5 µM)
- MIC [9]: 0.25 µg/mL (≈ 0.611 µM)
- MIC [10]: 8 µg/mL (≈ 19.5 µM)
- MIC [11]: 8 µg/mL (≈ 19.5 µM)
- MIC [12]: 1 µg/mL (≈ 2.44 µM)
- MIC [13]: 2 µg/mL (≈ 4.88 µM)
- MIC [14]: 0.063 µg/mL (≈ 0.154 µM)
- MIC [15]: >16 µg/mL
- MIC [16]: >16 µg/mL
- MIC [17]: >16 µg/mL
- MIC [18]: 8 µg/mL (≈ 19.5 µM)
- MIC [19]: >16 µg/mL
- MIC [20]: 8 µg/mL (≈ 19.5 µM)
